In the test the target is recombinant human baculovirus-expressed cMET (Homo sapiens (Human), UniProt P08581). As to the kind of experiment: C-MET Kinase Assay (HTRF KinEASE). In kind it is biochemical. Particulars: average of two or more determinations; read-out: c-MET IC50. Here is the method: The cMET kinase assay was performed in 384-well Fluotrac™ 200 HiBase microplates using the HTRF KinEASE™ assay described above for AXL except that the assay volume was reduced to half. Enzyme concentration was 8 ng/mL of recombinant human baculovirus-expressed cMET while the substrate concentrations were 0.1 μM and 0.02 μM for the biotinylated peptide and ATP, respectively. Instead of the Multidrop Combi, the BioRAPTR® FRD microfluidic workstation (Beckman Coulter, Brea, Calif.) was utilized for reagent additions.
Inhibition curves for compounds were generated by plotting percent control activity versus log 10 of the concentration of compound. IC50 values were calculated by nonlinear regression using the sigmoidal dose-response (variable slope) equation in GraphPad Prism as follows: y=bottom+(top−bottom)/(1+10(log IC50−x)*Hill Slope) where y is the % kinase activity at a given concentration of compound, x is the logarithm of the concentration of compound, bottom is the % of control kinase activity at the highest compound concentration tested, and top is the % of control kinase activity at the lowest compound concentration examined. The values for bottom and top were fixed at 0 and 100, respectively.
(In general: TR-FRET usually uses a lanthanide donor and a delayed reading to cut background.)

Take `COc1cc2nccc(Oc3ccc(NC(=O)c4nn(C)c(=O)n(CCn5cccn5)c4=O)cc3F)c2cc1OC` [Example 120, 2-Methyl-3,5-dioxo-4-(2-pyrazol-1-yl-ethyl)-2,3,4,5-tetrahydro-[1,2,4]triazine-6-carboxylic acid [4-(6,7-dimethoxyquinolin-4-yloxy)-3-fluorophenyl]-amide]: the half-inhibitory concentration (IC50) (as a rule, the concentration that inhibits the measured activity by half) lay within 10 to 100 nM.

Regarding `COc1cc2nccc(Oc3ccc(NC(=O)c4nn(C)c(=O)n(CC#CCO)c4=O)cc3F)c2cc1OC` [Example 118, 4-(4-Hydroxy-but-2-ynyl)-2-methyl-3,5-dioxo-2,3,4,5-tetrahydro-[1,2,4]triazine-6-carboxylic acid [4-(6,7-dimethoxy-quinolin-4-yloxy)-3-fluoro-phenyl]-amide], the concentration for half-maximal inhibition (IC50) lay in the range of 101 to 1000 nM.

`CCn1cc(C(=O)Nc2ccc(Oc3ccnc4cc(OC)c(OC)cc34)c(F)c2)c(=O)n(C2CCCCC2)c1=O` [Example 25, 3-Cyclohexyl-1-ethyl-2,4-dioxo-1,2,3,4-tetrahydropyrimidine-5-carboxylic acid [4-(6,7-dimethoxyquinolin-4-yloxy)-3-fluorophenyl]-amide]: the half-maximal inhibitory concentration (IC50) was 101 to 1000 nM.

Regarding `COc1cc2nccc(Sc3ccc(NC(=O)c4cn(C(C)C)c(=O)n(-c5ccc(F)cc5)c4=O)cc3)c2cc1OC` [Example 138, 3-(4-Fluoro-phenyl)-1-isopropyl-2,4-dioxo-1,2,3,4-tetrahydro-pyrimidine-5-carboxylic acid [4-(6,7-dimethoxy-quinolin-4-ylsulfanyl)-phenyl]-amide], the IC50 lay within 10 to 100 nM.

Take `COc1cc2ncnc(Oc3ccc(NC(=O)c4cn(C(C)C)c(=O)n(-c5ccc(F)cc5)c4=O)cc3)c2cc1OC` [Example 141, 3-(4-Fluoro-phenyl)-1-isopropyl-2,4-dioxo-1,2,3,4-tetrahydro-pyrimidine-5-carboxylic acid [4-(6,7-dimethoxy-quinazolin-4-yloxy)-phenyl]-amide]: the IC50 is 10 to 100 nM.

For `COc1cc2c(Oc3ccc(NC(=O)c4cn(C(C)C)c(=O)n(-c5ccc(F)cc5)c4=O)cc3F)ccnc2cc1OCc1ccccc1` [Example 41, 3-(4-Fluorophenyl)-1-isopropyl-2,4-dioxo-1,2,3,4-tetrahydropyrimidine-5-carboxylic acid [4-(7-benzyloxy-6-methoxyquinolin-4-yloxy)-3-fluorophenyl]-amide], the IC50 was 101 to 1000 nM.

As to `CCn1cc(C(=O)Nc2ccc(Oc3ccnc4cc(OC)c(OC)cc34)c(C)c2C)c(=O)n(-c2ccc(F)cc2)c1=O` [Example 157, 1-Ethyl-3-(4-fluoro-phenyl)-2,4-dioxo-1,2,3,4-tetrahydro-pyrimidine-5-carboxylic acid [4-(6,7-dimethoxy-quinolin-4-yloxy)-2,3-dimethyl-phenyl]-amide], the half-maximal inhibitory concentration (IC50) is 101 to 1000 nM.

`CCn1cc(C(=O)N(C)c2ccc(Oc3ccnc4cc(OC)c(OC)cc34)c(F)c2)c(=O)n(-c2ccc(F)cc2)c1=O` [Example 48, 1-Ethyl-3-(4-fluorophenyl)-2,4-dioxo-1,2,3,4-tetrahydropyrimidine-5-carboxylic acid [4-(6,7-dimethoxyquinolin-4-yloxy)-3-fluoro-phenyl]-methyl-amide]: the IC50 is 101 to 1000 nM.

Take `CCn1cc(C(=O)Nc2ccc(Oc3ccnc4cc(OCc5ccccc5)c(OC)cc34)c(F)c2)c(=O)n(-c2ccc(F)cc2)c1=O` [Example 40, 1-Ethyl-3-(4-fluorophenyl)-2,4-dioxo-1,2,3,4-tetrahydropyrimidine-5-carboxylic acid [4-(7-benzyloxy-6-methoxyquinolin-4-yloxy)-3-fluorophenyl]-amide]: the IC50 lay within 10 to 100 nM.

For the compound `COc1cc2nccc(Oc3ccc(NC(=O)c4cn(C(C)C)c(=O)n(-c5ccc(F)cc5)c4=O)cc3C(C)C)c2cc1OC` [Example 156, 3-(4-Fluoro-phenyl)-1-isopropyl-2,4-dioxo-1,2,3,4-tetrahydro-pyrimidine-5-carboxylic acid [4-(6,7-dimethoxy-quinolin-4-yloxy)-3-isopropyl-phenyl]-amide], the half-maximal inhibitory concentration (IC50) was 10 to 100 nM.

As to `COc1cc2nccc(Oc3ccc(NC(=O)c4cn(C(C)C)c(=O)n(C(C)C)c4=O)cc3F)c2cc1OC` [Example 94, 1,3-Diisopropyl-2,4-dioxo-1,2,3,4-tetrahydro-pyrimidine-5-carboxylic acid [4-(6,7-dimethoxy-quinolin-4-yloxy)-3-fluoro-phenyl]-amide], the IC50 was in the range of 10 to 100 nM.

In the case of `CCn1cc(C(=O)Nc2ccc(Oc3ccnc4cc(OC)c(OC)cc34)c(C(C)C)c2)c(=O)n(-c2ccc(F)cc2)c1=O` [Example 155, 1-Ethyl-3-(4-fluoro-phenyl)-2,4-dioxo-1,2,3,4-tetrahydro-pyrimidine-5-carboxylic acid [4-(6,7-dimethoxy-quinolin-4-yloxy)-3-isopropyl-phenyl]-amide], the IC50 fell in the range of 10 to 100 nM.

Turning to `COc1cc2nccc(Oc3ccc(NC(=O)c4cn(CCC5CCCCC5)c(=O)n(-c5ccc(F)cc5)c4=O)cc3F)c2cc1OC` [Example 80, 1-(2-Cyclohexyl-ethyl)-3-(4-fluoro-phenyl)-2,4-dioxo-1,2,3,4-tetrahydro-pyrimidine-5-carboxylic acid [4-(6,7-dimethoxy-quinolin-4-yloxy)-3-fluoro-phenyl]-amide], the IC50 is 101 to 1000 nM.

As for `COc1cc2nccc(Oc3ccc(NC(=O)c4cn(CC=C(C)C)c(=O)n(-c5ccc(F)cc5)c4=O)cc3F)c2cc1OC` [Example 15, 3-(4-Fluorophenyl)-1-(3-methyl-but-2-enyl)-2,4-dioxo-1,2,3,4-tetrahydropyrimidine-5-carboxylic acid [4-(6,7-dimethoxyquinolin-4-yloxy)-3-fluorophenyl]-amide], the IC50 lay in the range of 10 to 100 nM.

With `CCn1cc(C(=O)Nc2ccc(Oc3ccnc4cc(OC)c(OC)cc34)c(C)c2)c(=O)n(-c2ccc(F)cc2)c1=O` [Example 148, 1-Ethyl-3-(4-fluoro-phenyl)-2,4-dioxo-1,2,3,4-tetrahydro-pyrimidine-5-carboxylic acid [4-(6,7-dimethoxy-quinolin-4-yloxy)-3-methyl-phenyl]-amide], the IC50 lay in the range of 10 to 100 nM.

Regarding `COc1cc2nccc(Oc3ccc(NC(=O)c4cn(CCCCO)c(=O)n(-c5ccc(F)cc5)c4=O)cc3F)c2cc1OC` [Example 55, 3-(4-Fluorophenyl)-1-(4-hydroxybutyl)-2,4-dioxo-1,2,3,4-tetrahydropyrimidine-5-carboxylic acid [4-(6,7-dimethoxyquinolin-4-yloxy)-3-fluorophenyl]-amide], the IC50 was 10 to 100 nM.

In the case of `CCn1cc(C(=O)Nc2ccc(Oc3ncnc4cc(OC)c(OC)cc34)cc2)c(=O)n(-c2ccc(F)cc2)c1=O` [Example 142, 1-Ethyl-3-(4-fluorophenyl)-2,4-dioxo-1,2,3,4-tetrahydro-pyrimidine-5-carboxylic acid [4-(6,7-dimethoxy-quinazolin-4-yloxy)-phenyl]-amide], the IC50 lay in the range of 10 to 100 nM.

`COc1cc2nccc(Nc3ccc(NC(=O)c4nn(C(C)C)c(=O)n(-c5ccc(F)cc5)c4=O)cc3)c2cc1OC` [Example 136, 4-(4-Fluoro-phenyl)-2-isopropyl-3,5-dioxo-2,3,4,5-tetrahydro-[1,2,4]triazine-6-carboxylic acid [4-(6,7-dimethoxy-quinolin-4-ylamino)-phenyl]-amide]: the concentration for half-maximal inhibition (IC50) fell in the range of 101 to 1000 nM.

For the compound `CCn1cc(C(=O)Nc2ccc(Oc3ccnc4cc(OCCN5CCOCC5)c(OC)cc34)c(F)c2)c(=O)n(-c2ccc(F)cc2)c1=O` [Example 45, 1-Ethyl-3-(4-fluorophenyl)-2,4-dioxo-1,2,3,4-tetrahydropyrimidine-5-carboxylic acid {3-fluoro-4-[6-methoxy-7-(2-morpholin-4-yl-ethoxy)-quinolin-4-yloxy]phenyl}-amide], the IC50 fell in the range of 10 to 100 nM.

With `CCn1cc(C(=O)Nc2ccc(Sc3ccnc4cc(OC)c(OC)cc34)cc2)c(=O)n(-c2ccc(F)cc2)c1=O` [Example 137, 1-Ethyl-3-(4-fluorophenyl)-2,4-dioxo-1,2,3,4-tetrahydro-pyrimidine-5-carboxylic acid [4-(6,7-dimethoxy-quinolin-4-ylsulfanyl)-phenyl]-amide], the concentration for half-maximal inhibition (IC50) lay within 10 to 100 nM.

Turning to `COc1cc2nccc(Oc3ccc(NC(=O)c4cn(CCOC(C)C)c(=O)n(-c5ccc(F)cc5)c4=O)cc3F)c2cc1OC` [Example 12, 3-(4-Fluorophenyl)-1-(2-isopropoxyethyl)-2,4-dioxo-1,2,3,4-tetrahydropyrimidine-5-carboxylic acid [4-(6,7-dimethoxyquinolin-4-yloxy)-3-fluorophenyl]-amide], the half-maximal inhibitory concentration (IC50) was 10 to 100 nM.

Regarding `COc1cc2nccc(Oc3ccc(NC(=O)c4cn(CCCc5ccccc5)c(=O)n(-c5ccc(F)cc5)c4=O)cc3F)c2cc1OC` [Example 81, 3-(4-Fluoro-phenyl)-2,4-dioxo-1-(3-phenyl-propyl)-1,2,3,4-tetrahydro-pyrimidine-5-carboxylic acid [4-(6,7-dimethoxy-quinolin-4-yloxy)-3-fluoro-phenyl]-amide], the IC50 is 10 to 100 nM.

Regarding `COc1cc2nccc(Oc3ccc(NC(=O)c4cn(CC5CC5)c(=O)n(-c5ccc(F)cc5)c4=O)nc3)c2cc1OC` [Example 35, 1-Cyclopropylmethyl-3-(4-fluorophenyl)-2,4-dioxo-1,2,3,4-tetrahydropyrimidine-5-carboxylic acid [5-(6,7-dimethoxyquinolin-4-yloxy)pyridin-2-yl]-amide], the half-inhibitory concentration (IC50) was 10 to 100 nM.

Consider `COc1cc2nccc(Oc3ccc(NC(=O)c4cn(C(C)C)c(=O)n(-c5ccc(F)cc5)c4=O)c(N(C)C)c3)c2cc1OC` [Example 154, 3-(4-Fluoro-phenyl)-1-isopropyl-2,4-dioxo-1,2,3,4-tetrahydro-pyrimidine-5-carboxylic acid [4-(6,7-dimethoxy-quinolin-4-yloxy)-2-dimethylamino-phenyl]-amide], for which the IC50 was 101 to 1000 nM.

The record behind these values is US9745283B2, “Uracil derivatives as AXL and c-MET kinase inhibitors” (priority 2011, dated 2017).
